Results from the NIST ThermoML archive (doi:10.1021/je100078w).
Numbers after ± are expanded uncertainties.

Columns and labels:
[1] = 101.33 kPa, Liquid
[2] = wn = mass fraction of the nth substance listed; details: 101 kPa, Liquid

C[NH+](CCO)CCO.F[B-](F)(F)F
mass density ([1]; 303.15 K): 1425.56 ± 3.2 kg/m3
viscosity ([1]; 303.15 K): 208.8 ± 16 mPa·s
mass density ([1]; 313.15 K): 1418.1 ± 3.2 kg/m3
viscosity ([1]; 313.15 K): 117.7 ± 5.6 mPa·s
mass density ([1]; 323.15 K): 1410.63 ± 3.2 kg/m3
viscosity ([1]; 323.15 K): 71.79 ± 1.6 mPa·s
mass density ([1]; 333.15 K): 1403.2 ± 3.1 kg/m3
viscosity ([1]; 333.15 K): 46.85 ± 0.76 mPa·s
mass density ([1]; 343.15 K): 1395.85 ± 3.1 kg/m3
viscosity ([1]; 343.15 K): 32.35 ± 0.53 mPa·s

C[NH+](CCO)CCO.F[B-](F)(F)F + O
mass density ([2]; 303.15 K, w1 = 0.3001): 1084.71 ± 1.9 kg/m3
viscosity ([2]; 303.15 K, w2 = 0.3001): 1.245 ± 0.042 mPa·s
mass density ([2]; 313.15 K, w1 = 0.3001): 1075.11 ± 1.8 kg/m3
viscosity ([2]; 313.15 K, w2 = 0.3001): 1.041 ± 0.038 mPa·s
mass density ([2]; 323.15 K, w1 = 0.3001): 1067.02 ± 1.8 kg/m3
viscosity ([2]; 323.15 K, w2 = 0.3001): 0.8831 ± 0.035 mPa·s
mass density ([2]; 333.15 K, w1 = 0.3001): 1058.01 ± 1.7 kg/m3
viscosity ([2]; 333.15 K, w2 = 0.3001): 0.7874 ± 0.034 mPa·s
mass density ([2]; 343.15 K, w1 = 0.3001): 1047.87 ± 1.7 kg/m3
viscosity ([2]; 343.15 K, w2 = 0.3001): 0.7196 ± 0.032 mPa·s

CCCCn1cc[n+](C)c1.F[B-](F)(F)F [1-butyl-3-methylimidazolium tetrafluoroborate]
mass density ([1]; 303.15 K): 1195.7 ± 1.2 kg/m3
viscosity ([1]; 303.15 K): 68.9 ± 1.3 mPa·s
mass density ([1]; 313.15 K): 1188.62 ± 1.1 kg/m3
viscosity ([1]; 313.15 K): 44.73 ± 0.61 mPa·s
mass density ([1]; 323.15 K): 1181.59 ± 1.1 kg/m3
viscosity ([1]; 323.15 K): 30.81 ± 0.43 mPa·s
mass density ([1]; 333.15 K): 1174.6 ± 1.1 kg/m3
viscosity ([1]; 333.15 K): 22.28 ± 0.31 mPa·s
mass density ([1]; 343.15 K): 1167.67 ± 1.1 kg/m3
viscosity ([1]; 343.15 K): 16.75 ± 0.24 mPa·s

CCCCn1cc[n+](C)c1.F[B-](F)(F)F [1-butyl-3-methylimidazolium tetrafluoroborate] + O
mass density ([2]; 303.15 K, w1 = 0.2998): 1045.35 ± 1.3 kg/m3
viscosity ([2]; 303.15 K, w1 = 0.2998): 1.292 ± 0.042 mPa·s
mass density ([2]; 313.15 K, w1 = 0.2998): 1039.84 ± 1.3 kg/m3
viscosity ([2]; 313.15 K, w1 = 0.2998): 1.046 ± 0.038 mPa·s
mass density ([2]; 323.15 K, w1 = 0.2998): 1033.76 ± 1.3 kg/m3
viscosity ([2]; 323.15 K, w1 = 0.2998): 0.8731 ± 0.035 mPa·s
mass density ([2]; 333.15 K, w1 = 0.2998): 1027.74 ± 1.2 kg/m3
viscosity ([2]; 333.15 K, w1 = 0.2998): 0.7473 ± 0.033 mPa·s
mass density ([2]; 343.15 K, w1 = 0.2998): 1021.18 ± 1.2 kg/m3
viscosity ([2]; 343.15 K, w1 = 0.2998): 0.6549 ± 0.031 mPa·s

CCCCn1cc[n+](C)c1.F[B-](F)(F)F [1-butyl-3-methylimidazolium tetrafluoroborate] + OCCN(CCO)CCO
mass density ([2]; 303.15 K, w2 = 0): 1195.7 ± 4.8 kg/m3
viscosity ([2]; 303.15 K, w2 = 0): 68.9 ± 3.1 mPa·s
mass density ([2]; 313.15 K, w2 = 0): 1188.62 ± 4.7 kg/m3
viscosity ([2]; 313.15 K, w2 = 0): 44.73 ± 1.5 mPa·s
mass density ([2]; 323.15 K, w2 = 0): 1181.59 ± 4.6 kg/m3
viscosity ([2]; 323.15 K, w2 = 0): 30.81 ± 1 mPa·s
mass density ([2]; 333.15 K, w2 = 0): 1174.6 ± 4.5 kg/m3
viscosity ([2]; 333.15 K, w2 = 0): 22.28 ± 0.76 mPa·s
mass density ([2]; 343.15 K, w2 = 0): 1167.67 ± 4.3 kg/m3
viscosity ([2]; 343.15 K, w2 = 0): 16.75 ± 0.58 mPa·s

CN(CCO)CCO.CN(CCO)CCO.O=S(=O)(O)O [2,2'-(methylimino)diethanol sulfate (2:1)]
mass density ([1]; 303.15 K): 1282.49 ± 2.5 kg/m3
mass density ([1]; 313.15 K): 1276.83 ± 2.4 kg/m3
viscosity ([1]; 313.15 K): 1858 ± 360 mPa·s
mass density ([1]; 323.15 K): 1271.25 ± 2.4 kg/m3
viscosity ([1]; 323.15 K): 990.8 ± 160 mPa·s
mass density ([1]; 333.15 K): 1265.72 ± 2.4 kg/m3
viscosity ([1]; 333.15 K): 571.2 ± 75 mPa·s
mass density ([1]; 343.15 K): 1260.24 ± 2.4 kg/m3
viscosity ([1]; 343.15 K): 350.4 ± 37 mPa·s

CN(CCO)CCO.CN(CCO)CCO.O=S(=O)(O)O [2,2'-(methylimino)diethanol sulfate (2:1)] + O
mass density ([2]; 303.15 K, w1 = 0.2999): 1091.95 ± 1.9 kg/m3
viscosity ([2]; 303.15 K, w1 = 0.3001): 1.795 ± 0.052 mPa·s
mass density ([2]; 313.15 K, w1 = 0.2999): 1087.46 ± 1.9 kg/m3
viscosity ([2]; 313.15 K, w1 = 0.3001): 1.446 ± 0.046 mPa·s
mass density ([2]; 323.15 K, w1 = 0.2999): 1082.24 ± 1.9 kg/m3
viscosity ([2]; 323.15 K, w1 = 0.3001): 1.196 ± 0.041 mPa·s
mass density ([2]; 333.15 K, w1 = 0.2999): 1075.89 ± 1.8 kg/m3
viscosity ([2]; 333.15 K, w1 = 0.3001): 1.012 ± 0.038 mPa·s
mass density ([2]; 343.15 K, w1 = 0.2999): 1068.32 ± 1.8 kg/m3
viscosity ([2]; 343.15 K, w1 = 0.3001): 0.872 ± 0.035 mPa·s

NCCO [2-aminoethan-1-ol] + O
mass density ([2]; 303.15 K, w1 = 0.3002): 1013.02 ± 0.88 kg/m3
viscosity ([2]; 303.15 K, w1 = 0.3002): 2.093 ± 0.056 mPa·s
mass density ([2]; 313.15 K, w1 = 0.3002): 1007.98 ± 0.86 kg/m3
viscosity ([2]; 313.15 K, w1 = 0.3002): 1.603 ± 0.048 mPa·s
mass density ([2]; 323.15 K, w1 = 0.3002): 1003.42 ± 0.84 kg/m3
viscosity ([2]; 323.15 K, w1 = 0.3002): 1.271 ± 0.042 mPa·s
mass density ([2]; 333.15 K, w1 = 0.3002): 997.157 ± 0.83 kg/m3
viscosity ([2]; 333.15 K, w1 = 0.3002): 1.037 ± 0.038 mPa·s
mass density ([2]; 343.15 K, w1 = 0.3002): 989.924 ± 0.85 kg/m3
viscosity ([2]; 343.15 K, w1 = 0.3002): 0.8681 ± 0.035 mPa·s

C[NH+](CCO)CCO.[Cl-] [2-hydroxy-N-(2-hydroxyethyl)-N-methylethanaminium chloride]
mass density ([1]; 303.15 K): 1180.42 ± 1.9 kg/m3
viscosity ([1]; 303.15 K): 512.1 ± 64 mPa·s
mass density ([1]; 313.15 K): 1174.71 ± 1.9 kg/m3
viscosity ([1]; 313.15 K): 278.2 ± 26 mPa·s
mass density ([1]; 323.15 K): 1169.24 ± 1.9 kg/m3
viscosity ([1]; 323.15 K): 164.2 ± 11 mPa·s
mass density ([1]; 333.15 K): 1163.75 ± 1.9 kg/m3
viscosity ([1]; 333.15 K): 104.1 ± 4.3 mPa·s
mass density ([1]; 343.15 K): 1158.29 ± 1.8 kg/m3
viscosity ([1]; 343.15 K): 70.45 ± 1.5 mPa·s

C[NH+](CCO)CCO.[Cl-] [2-hydroxy-N-(2-hydroxyethyl)-N-methylethanaminium chloride] + O
viscosity ([2]; 303.15 K, w1 = 0.3001): 1.539 ± 0.048 mPa·s
mass density ([2]; 303.15 K, w1 = 0.3006): 1058.44 ± 1.7 kg/m3
viscosity ([2]; 313.15 K, w1 = 0.3001): 1.265 ± 0.042 mPa·s
mass density ([2]; 313.15 K, w1 = 0.3006): 1053.89 ± 1.7 kg/m3
viscosity ([2]; 323.15 K, w1 = 0.3001): 1.067 ± 0.039 mPa·s
mass density ([2]; 323.15 K, w1 = 0.3006): 1049.23 ± 1.7 kg/m3
viscosity ([2]; 333.15 K, w1 = 0.3001): 0.8862 ± 0.035 mPa·s
mass density ([2]; 333.15 K, w1 = 0.3006): 1043.31 ± 1.6 kg/m3
viscosity ([2]; 343.15 K, w1 = 0.3001): 0.7911 ± 0.034 mPa·s
mass density ([2]; 343.15 K, w1 = 0.3006): 1037.05 ± 1.6 kg/m3

C[NH+](CCO)CCO.C[NH+](CCO)CCO.C[NH+](CCO)CCO.O=P([O-])([O-])[O-] [2-hydroxy-N-(2-hydroxyethyl)-N-methylethanaminium phosphate]
mass density ([1]; 303.15 K): 1215.95 ± 2.1 kg/m3
mass density ([1]; 313.15 K): 1208.49 ± 2.1 kg/m3
viscosity ([1]; 313.15 K): 2483 ± 520 mPa·s
mass density ([1]; 323.15 K): 1200.88 ± 2.1 kg/m3
viscosity ([1]; 323.15 K): 1426 ± 260 mPa·s
mass density ([1]; 333.15 K): 1193.23 ± 2 kg/m3
viscosity ([1]; 333.15 K): 822.5 ± 120 mPa·s
mass density ([1]; 343.15 K): 1185.52 ± 2 kg/m3
viscosity ([1]; 343.15 K): 385.4 ± 43 mPa·s

C[NH+](CCO)CCO.C[NH+](CCO)CCO.C[NH+](CCO)CCO.O=P([O-])([O-])[O-] [2-hydroxy-N-(2-hydroxyethyl)-N-methylethanaminium phosphate] + O
viscosity ([2]; 303.15 K, w1 = 0.3001): 2.63 ± 0.068 mPa·s
mass density ([2]; 303.15 K, w1 = 0.3007): 1075.32 ± 1.8 kg/m3
viscosity ([2]; 313.15 K, w1 = 0.3001): 2.125 ± 0.059 mPa·s
mass density ([2]; 313.15 K, w1 = 0.3007): 1070.31 ± 1.8 kg/m3
viscosity ([2]; 323.15 K, w1 = 0.3001): 1.805 ± 0.052 mPa·s
mass density ([2]; 323.15 K, w1 = 0.3007): 1063.44 ± 1.8 kg/m3
viscosity ([2]; 333.15 K, w1 = 0.3001): 1.594 ± 0.048 mPa·s
mass density ([2]; 333.15 K, w1 = 0.3007): 1055.39 ± 1.7 kg/m3
viscosity ([2]; 343.15 K, w1 = 0.3001): 1.455 ± 0.046 mPa·s
mass density ([2]; 343.15 K, w1 = 0.3007): 1045.38 ± 1.6 kg/m3
